# Values of other authors as cited in patent US4681764A, “Porous and spherical carbonaceous product” (Kureha Kagaku Kogyo Kabushiki Kaisha, priority 1979, dated 1987).
# Conditions: in vivo
substance,measurement,value
oxidized starch,stimulation of the intestinal wall,side-reaction of stimulating the intestinal wall
